Reference: paper PMC6199744, “Development of Chemical Proteomics for the Folateome and Analysis of the Kinetoplastid Folateome” (ACS Infectious Diseases, 2018)
Like-named read-outs stand apart in the source and are kept apart here.

Experiments:
Type in all cases: binding
[1] = target: T1, HeLa cell extract proteins (Homo sapiens, UniProt P10599)
T1 construct: endogenous in cells; host or cells: HeLa cell extract
T1 sequence (P10599 1-105): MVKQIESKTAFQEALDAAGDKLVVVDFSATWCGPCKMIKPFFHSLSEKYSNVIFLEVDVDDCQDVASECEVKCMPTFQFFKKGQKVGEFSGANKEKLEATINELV

[2] = target: T2, HeLa cell extract proteins (Homo sapiens, UniProt P05387)
T2 construct: endogenous in cells; host or cells: HeLa cell extract
T2 sequence (P05387 whole entry): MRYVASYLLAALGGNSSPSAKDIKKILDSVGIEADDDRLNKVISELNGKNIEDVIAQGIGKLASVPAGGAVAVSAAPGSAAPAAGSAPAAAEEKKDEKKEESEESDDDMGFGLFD

[3] = target: T3, HeLa cell extract proteins (Homo sapiens, UniProt P35232)
T3 construct: endogenous in cells; host or cells: HeLa cell extract
T3 sequence (P35232 1-272): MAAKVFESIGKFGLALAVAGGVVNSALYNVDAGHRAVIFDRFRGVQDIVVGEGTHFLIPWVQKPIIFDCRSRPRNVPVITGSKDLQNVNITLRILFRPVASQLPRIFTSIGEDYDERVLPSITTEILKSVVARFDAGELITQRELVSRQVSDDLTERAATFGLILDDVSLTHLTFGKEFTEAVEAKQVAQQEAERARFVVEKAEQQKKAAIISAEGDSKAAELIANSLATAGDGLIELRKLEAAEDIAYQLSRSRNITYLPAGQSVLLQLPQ

[4] = target: T4, HeLa cell extract proteins (Homo sapiens, UniProt Q9UL46)
T4 construct: endogenous in cells; host or cells: HeLa cell extract
T4 sequence (Q9UL46 whole entry): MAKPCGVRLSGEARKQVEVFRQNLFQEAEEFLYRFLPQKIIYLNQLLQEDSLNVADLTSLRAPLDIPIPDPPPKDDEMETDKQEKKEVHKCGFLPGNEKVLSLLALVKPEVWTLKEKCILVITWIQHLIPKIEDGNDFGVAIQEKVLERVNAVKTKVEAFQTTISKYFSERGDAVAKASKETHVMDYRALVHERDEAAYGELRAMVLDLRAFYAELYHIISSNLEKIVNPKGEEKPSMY

[5] = target: T5, HeLa cell extract proteins (Homo sapiens, UniProt Q9H857)
T5 construct: endogenous in cells; host or cells: HeLa cell extract
T5 sequence (Q9H857 1-520): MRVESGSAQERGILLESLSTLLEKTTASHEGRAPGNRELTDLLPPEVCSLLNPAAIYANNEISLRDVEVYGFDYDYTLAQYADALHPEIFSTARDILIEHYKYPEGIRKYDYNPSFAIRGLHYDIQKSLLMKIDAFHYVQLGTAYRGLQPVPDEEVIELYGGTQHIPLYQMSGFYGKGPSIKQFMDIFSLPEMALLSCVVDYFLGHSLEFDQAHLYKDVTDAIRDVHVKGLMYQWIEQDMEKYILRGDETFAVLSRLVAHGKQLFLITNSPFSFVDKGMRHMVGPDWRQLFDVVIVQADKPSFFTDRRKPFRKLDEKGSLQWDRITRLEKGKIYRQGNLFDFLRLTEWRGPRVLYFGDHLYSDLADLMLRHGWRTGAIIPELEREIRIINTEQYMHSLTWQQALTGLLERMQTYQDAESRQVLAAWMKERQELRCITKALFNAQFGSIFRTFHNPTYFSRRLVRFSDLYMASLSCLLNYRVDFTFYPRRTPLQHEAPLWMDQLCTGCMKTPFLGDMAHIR

[6] = target: T6, HeLa cell extract proteins (Homo sapiens, UniProt P60174)
T6 construct: endogenous in cells; host or cells: HeLa cell extract
T6 sequence (P60174 whole entry): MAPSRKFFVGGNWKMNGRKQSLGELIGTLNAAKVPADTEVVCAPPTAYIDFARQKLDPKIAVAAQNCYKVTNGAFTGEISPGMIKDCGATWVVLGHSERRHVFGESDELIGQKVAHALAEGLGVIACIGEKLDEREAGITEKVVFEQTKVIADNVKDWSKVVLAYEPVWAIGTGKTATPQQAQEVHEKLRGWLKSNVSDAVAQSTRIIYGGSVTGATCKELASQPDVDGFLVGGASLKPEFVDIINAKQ

[7] = target: T7, HeLa cell extract proteins (Homo sapiens, UniProt P41252)
T7 construct: endogenous in cells; host or cells: HeLa cell extract
T7 sequence (P41252 1-1262): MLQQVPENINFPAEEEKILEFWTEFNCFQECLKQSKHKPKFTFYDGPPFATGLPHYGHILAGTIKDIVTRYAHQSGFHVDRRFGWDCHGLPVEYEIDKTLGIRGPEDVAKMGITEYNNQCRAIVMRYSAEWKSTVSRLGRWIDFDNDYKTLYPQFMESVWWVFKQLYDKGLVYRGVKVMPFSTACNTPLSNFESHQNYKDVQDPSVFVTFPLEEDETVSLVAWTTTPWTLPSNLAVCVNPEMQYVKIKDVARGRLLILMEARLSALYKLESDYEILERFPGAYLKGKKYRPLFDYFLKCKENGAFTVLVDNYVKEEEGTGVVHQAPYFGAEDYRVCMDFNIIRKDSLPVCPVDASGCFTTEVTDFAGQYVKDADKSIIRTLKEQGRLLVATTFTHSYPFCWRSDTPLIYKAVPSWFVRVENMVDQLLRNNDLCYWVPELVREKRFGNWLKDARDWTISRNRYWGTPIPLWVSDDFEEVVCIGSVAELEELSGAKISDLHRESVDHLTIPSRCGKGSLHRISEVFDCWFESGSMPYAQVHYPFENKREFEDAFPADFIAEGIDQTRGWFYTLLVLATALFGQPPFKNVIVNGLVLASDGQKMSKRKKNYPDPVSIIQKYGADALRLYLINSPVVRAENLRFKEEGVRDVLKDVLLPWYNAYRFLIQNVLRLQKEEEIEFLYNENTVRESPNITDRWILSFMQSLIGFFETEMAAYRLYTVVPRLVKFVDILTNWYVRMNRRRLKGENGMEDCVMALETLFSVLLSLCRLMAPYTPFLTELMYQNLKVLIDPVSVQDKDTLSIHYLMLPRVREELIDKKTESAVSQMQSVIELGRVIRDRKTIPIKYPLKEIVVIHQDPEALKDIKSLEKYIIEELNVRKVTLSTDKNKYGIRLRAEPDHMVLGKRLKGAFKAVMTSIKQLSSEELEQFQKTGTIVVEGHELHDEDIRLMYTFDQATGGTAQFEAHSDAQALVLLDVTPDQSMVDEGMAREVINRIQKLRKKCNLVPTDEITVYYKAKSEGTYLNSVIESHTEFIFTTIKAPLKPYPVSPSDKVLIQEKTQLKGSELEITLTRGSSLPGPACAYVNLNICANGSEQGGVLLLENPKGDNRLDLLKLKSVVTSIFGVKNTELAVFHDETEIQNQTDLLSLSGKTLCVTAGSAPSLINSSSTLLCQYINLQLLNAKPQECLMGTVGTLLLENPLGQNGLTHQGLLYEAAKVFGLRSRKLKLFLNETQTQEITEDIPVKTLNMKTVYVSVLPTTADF

[8] = target: T8, HeLa cell extract proteins (Homo sapiens, UniProt P61457)
T8 construct: endogenous in cells; host or cells: HeLa cell extract
T8 sequence (P61457 1-104): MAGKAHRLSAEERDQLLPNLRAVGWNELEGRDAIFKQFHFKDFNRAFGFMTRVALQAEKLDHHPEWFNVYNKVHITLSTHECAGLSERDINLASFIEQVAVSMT

[9] = HeLa, protein TPI1 (ISOFORM 1 OF TRIOSEPHOSPHATE ISOMERASE.)

Structure (SMILES)	fold changes relative to vehicle control ([1]; HeLa, protein TXN)	fold changes relative to vehicle control ([2]; protein RPLP2, HeLa)	fold changes relative to vehicle control ([3]; HeLa, protein PHB)	fold changes relative to vehicle control ([4]; HeLa, protein PSME2)	fold changes relative to vehicle control ([5]; HeLa, captured protein NT5DC2)	fold changes relative to vehicle control ([6]; HeLa, protein TPI1)	fold changes relative to vehicle control ([7]; HeLa, captured protein IARS)	fold changes relative to vehicle control ([8]; HeLa, captured protein PCBD1)	fold changes relative to vehicle control ([1]; captured protein TXN, HeLa)	fold changes relative to vehicle control ([3]; protein PHB, HeLa)	fold changes relative to vehicle control ([4]; protein PSME2, HeLa)	fold changes relative to vehicle control ([5]; protein NT5DC2, HeLa)	fold changes relative to vehicle control ([7]; HeLa, protein IARS)	fold changes relative to vehicle control ([8]; captured protein PCBD1, HeLa)	other results
Nc1nc2c(c(=O)[nH]1)N(C=O)C(CNc1ccc(C(=O)N[C@@H](CCC(=O)O)C(=O)O)cc1)CN2 (some centres unmarked) [LEU, leucovorin]	1.05	0.82	0.95	0.94	0.94	1.03	1.01	1.4							
Nc1nc2[nH]cc(CCc3ccc(C(=O)N[C@@H](CCC(=O)O)C(=O)O)cc3)c2c(=O)[nH]1 [PTX, pemetrexed]															fold changes relative to vehicle control [1]: 1.13; fold changes relative to vehicle control [2]: 0.94; fold changes relative to vehicle control [3]: 0.92; fold changes relative to vehicle control [4]: 0.9; fold changes relative to vehicle control [5]: 0.91; fold changes relative to vehicle control [6]: 1.22; fold changes relative to vehicle control [7]: 0.96; fold changes relative to vehicle control [8]: 1.68
CCCCCCOc1ccc(Cc2cnc(N)nc2N)cc1 [compound 1]		0.76							0.95	1.06	1.01	1.05	1.15	1.01	fold changes relative to vehicle control [6, 9]: 1.44 fold
CCCCCCOc1cccc(Cc2cnc(N)nc2N)c1 [compound 2]		1.65							1.18	0.99	1.38	0.91	1.22	0.96	fold changes relative to vehicle control [6, 9]: 2.37 fold
Nc1nc2cccc(-c3ccccc3)c2n1Cc1ccc(Cl)c(Cl)c1 [compound 3]		0.81							1.12	0.93	0.93	1	1.28	1.29	fold changes relative to vehicle control ([6]; HeLa, protein TPI1 (ISOFORM 1 OF TRIOS[…].)): 0.88 fold
NCCOCCOCC(=O)Nc1nc2ncc(CNc3ccc(C(=O)NC(CCC(=O)O)C(=O)O)cc3)nc2c(=O)[nH]1 (centres unmarked) [compound 6]	1.28	1.04	0.99	0.95	0.96	1.41	1.03	1.58							
NCCCNc1ccc(C(=O)NC(CCC(=O)O)C(=O)O)cc1 (centres unmarked) [compound 7]	1.33	0.82	0.96	0.89	0.97	1	1.1	1.48							
